Reference: patent US20060069045A1, “Methods for treating familial dysautonomia” (priority 2004, published 2006)

Tests used:
Type in all cases: cell-based, human
[1] = system: hnRNP A1; assay: Western blot analysis of hnRNP A1 in EGCG-treated cells; conditions: GM00850 and GM04663 cells, 24 h, 50 μg/ml EGCG
From the text: (§1) The GM00850 and GM04663 cell lines, homozygous for the IVS20^+6T→C FD-causing mutation, and the GM02912 cell line, derived from an unaffected individual, were obtained from the NIGMS Human Genetic Mutant Cell Repository. LA1-55n cells were provided by Dr. Robert A. Ross. EGCG and δ-tocotrienol were purchased from Calbiochem. A monoclonal antibody generated against a peptide encoded by exons 23-28 of IKBKAP was purchased from BD Biosciences. The 4B10 and DP3B3 monoclonal antibodies, which recognize hnRNP A1 and hnRNP A2/B1, respectively, were provided by Dr. Gideon Dreyfuss.
(§2) GM00850 and GM04663 cells treated for 24 h with 50 μg/ml of EGCG were washed twice with PBS and lysed in 0.5 M Tris-HCl, pH 6.8, containing 1.4% SDS. Western blot analysis was performed essentially as described by Rubin et al. (Proc. Natl. Acad. Sci. USA 82: 6637-41 (1985)). Equal amounts of protein fractionated on a 7% NuPAGE Tris-Acetate Gel (Invitrogen) were blotted onto nitrocellulose (Bio-Rad) and probed overnight with a monoclonal antibody (BD Biosciences) to IKAP that is directed against the carboxyl end (exons 23-28) of IKAP and therefore recognizes the full-length protein. The blot was then washed and probed with a goat anti-mouse antibody conjugated to alkaline phosphatase (Promega), followed by detection with Western Blue Substrate solution (Promega). […]

[2] = system: IKAP transcript; assay: RT-PCR with primers in exons 19 and 23, agarose gel, of wild-type and mutant IKAP transcripts; conditions: 24 h, 50 μg/ml EGCG
Procedure: The effect of EGCG treatment was further monitored by RT-PCR analysis using primers located in exons 19 and 23 capable of amplifying both the normal and mutant forms of the IKAP transcript. 4 μl of cell lysates produced as described above was used in 20 μl RT-PCR using the One Step RT-PCR Kit (Qiagen) with the following primers which recognize sequences in exons 19 and 23 of IKBKAP: 5′-GCAGCAATCATGTGTCCCA-3′ (SEQ ID NO: 1) and 5′-TAGCATCGCAGACAAGGTC-3′ (SEQ ID NO: 2). The RT-PCR was carried out as follows: one cycle of 50° C.×30 min and 95° C.×15 min, followed by 41 cycles of 94° C.×20 s, 60° C.×30 s and 72° C.×15 s, and then a final extension of 72° C.×2 min. PCR products were analyzed on a 2% agarose gel.

[3] = system: IKAP transcript; assay: real-time RT-PCR analysis of IKAP RNA levels (exon 20-containing, exon 20-lacking) in treated cells; conditions: for level of the wild-type of IKAP transcript: GM04663 cells, 24 h, each agent by itself (5 ug/ml EGCG; 6.25 ug/ml δ-tocotrienol)
Procedure: (§3) In order to identify agents that could modulate the level of the wild type IKAP transcript produced in FD-derived cells, either by increasing transcription or modulating splicing, FD-derived fibroblast cells (GM04663) were treated with EGCG. RNA was isolated from GM04663 cells treated for 24 h with varying concentrations of EGCG was subjected to real-time RT-PCR analysis using a pair of primers that recognize both of the hnRNP A2/B1 transcripts. More specifically, FD-derived fibroblast cells, seeded in 96-well plates were treated in triplicate for approximately 24 h unless noted otherwise. After treatment, the cells were washed once with PBS and then lysed in 50 μl Cell-to-cDNA lysis buffer (Ambion) at 75° C. for 12 min. After one freeze-thaw cycle, 4 μl of lysate was used in 20 μl RT-PCR. The Quantitect SYBR Green RT-PCR Kit (Qiagen) was used for real-time RT-PR analysis of the relative quantities of the exon 20-containing transcript (wild-type), the exon 20-lacking transcript (mutant), and exon 34-35 containing transcript that is unaffected by the FD-causing mutation (total), as well as the hnRNP A2/B1 and hnRNP A1 transcripts.
The primers used for these analyses were as follows: for the exon 20-containing transcript, 5′-AGTTGTTCATCATCGAGC-3′ (SEQ ID NO: 3) and 5′-[…]-3′ (SEQ ID NO: 4); for exon 20-lacking transcript, 5′-[…]-3′ (SEQ ID NO: 5) and 5′-[…]-3′ (SEQ ID NO: 6); for exon […] containing transcript, 5′-GAGATCATCCAAGAATCGC-3′ (SEQ ID NO: 7) and 5′-GGTAGCTGAATTCTGCTG-3′ (SEQ ID NO: 8); for hnRNP A2/B1 transcript, 5′-GAGTTGTTTCTCGAGCAG-3′ (SEQ ID NO: 9) and 5′-TGATCTTTTGCTTGCAGG-3′ (SEQ ID NO: 10); and for hnRNP A1 transcript, 5′-[…]-3′ (SEQ ID NO: 11) and 5′-[…]-3′ (SEQ ID NO: 12). Primers were used at a concentration of 0.5 μM. An ABI PRISM 7000 Sequence Detection System (Applied Biosystems), programmed as follows, was used to perform the real-time RT-PCR and analysis: 50° C.×30 min and 95° C.×15 min for one cycle, followed by 40 cycles of 94° C.×15 s, 57-60° C.×30 s, and 72° C.×30 s. To present relative amounts of PCR product obtained, results are expressed as changes in the threshold cycle (ΔCT) compared to untreated cells. The threshold cycle refers to the PCR cycle at which the fluorescence of the PCR is increased to a calculated level above background. A change of 1.0 in CT, assuming 100% PCR efficiency, would reflect a twofold change in the starting amount of the RNA template that was amplified.
To control for the amount of RNA present in the samples, RT-PCR amplification of ribosomal 18S RNA was performed on all cell lysates. […] For this analysis, TaqMan Ribosomal RNA Control Reagents were used with the TaqMan EZ RT-PCR Kit (Applied Biosystems) as per the manufacturer's protocol.
(§4) To determine the effect of EGCG on the cellular level of the exon 20-containing (wild type) IKAP mRNA, FD-derived and normal fibroblasts were treated with 50 μg/ml EGCG for varying lengths of time. The levels of hnRNP A2/B1, hnRNP A1, IKAP exon 20-containing (wild type), IKAP exon 20-lacking (mutant), and IKAP exon 34-35-containing (total) transcripts were determined (FIG. 3).

[4] = system: hnRNP A2/B1 transcript; assay: real-time RT-PCR analysis of hnRNP A2/B1 transcripts in EGCG-treated cells
From the text: as §1
as §3, with “transcripts. […]” for “transcripts. More specifically, FD-derived fibroblast cells, seeded in 96-well plates were treated in triplicate for approximately 24 h unless noted otherwise. After treatment, the cells were washed once with PBS and then lysed in 50 μl Cell-to-cDNA lysis buffer (Ambion) at 75° C. for 12 min. After one freeze-thaw cycle, 4 μl of lysate was used in 20 μl RT-PCR.”, “transcripts. […]” for “transcripts.”

[5] = system: hnRNP A2/B1; assay: Western blot analysis of hnRNP A2/B1 in EGCG-treated cells; conditions: GM00850 and GM04663 cells, 24 h, 50 μg/ml EGCG
From the text: as §1, §2

[6] = system: hnRNP A1 transcript; assay: real-time RT-PCR analysis of hnRNP A1 transcript in EGCG-treated cells; conditions: FD-derived and normal fibroblasts, 50 μg/ml EGCG, varying lengths of time
Procedure: as §3, with “noted otherwise. […] The Quantitect” for “noted otherwise. After treatment, the cells were washed once with PBS and then lysed in 50 μl Cell-to-cDNA lysis buffer (Ambion) at 75° C. for 12 min. After one freeze-thaw cycle, 4 μl of lysate was used in 20 μl RT-PCR. The Quantitect”, “A1 transcripts. […]” for “A1 transcripts.”
as §4

[7] = system: IKAP; assay: Western blot analysis of full-length IKAP in treated FD-derived cells; conditions: FD-derived GM00850 and GM04663 fibroblasts, 24 h, 50 μg/ml EGCG
From the text: as §1, §2

## O=C(O[C@@H]1Cc2c(O)cc(O)cc2O[C@@H]1c1cc(O)c(O)c(O)c1)c1cc(O)c(O)c(O)c1 [EGCG, epigallocatechin gallate]
[1]
  hnRNP A1 levels (Western blot): unaffected
[2]; FD-derived cells
  exon 20-containing transcript (RT-PCR, exons 19-23, gel): clear enhanced presence
[2]; normal cells
  exon 20-containing transcript (RT-PCR, exons 19-23, gel): no effect
[3]; 50 μg/ml EGCG, varying lengths of time
  level of the exon 20-lacking transcript: not affected
[3]; FD-derived cells, 50 μg/ml EGCG, varying lengths of time
  exon 20-containing IKAP transcript: elevated
[3]
  level of the wild-type of IKAP transcript: did not result in a significant elevation
[3]; normal cells (GM02912), 50 μg/ml EGCG, varying lengths of time
  exon 20-containing IKAP transcript: failed to exhibit an increase
[4]; FD-derived GM04663 cells, 24 h, varying concentrations of EGCG
  level of the hnRNP A2/B1 transcript: clear concentration-dependent decrease
[4]; FD-derived and normal fibroblasts, 50 μg/ml EGCG, varying lengths of time
  level of the hnRNP A2/B1 transcript: time-dependent reduction
[5]
  level of hnRNP A2/B1 (Western blot): suppress the level
[6]
  level of the hnRNP A1 transcript: no effect
[7]
  amount of IKAP (full-length protein, Western blot): clear increase

## CC(C)=CCC/C(C)=C/CC/C(C)=C/CC[C@]1(C)CCc2cc(O)cc(C)c2O1 [8-tocotrienol, δ-tocotrienol, reference compound]
[3]
  level of the wild-type of IKAP transcript: did not result in a significant elevation
